{"source": "patent US20230225988A1", "about": "“ANTIVIRAL USE OF CALIXARENES” (CEBINA GmbH, priority 2020, published 2023)", "key": {"SARS-CoV-2 [1]": {"system": "SARS-CoV-2", "assay": "Microscopic examination of the cytopathogenic effect in SARS-CoV-2 infected Vero E6 cells"}, "influenza H1N1 [2]": {"system": "influenza H1N1", "type": "cell-based", "details": "CX-1 500 μM apical"}, "[3]": {"system": "human nasal epithelial cells (MucilAir Pool)", "details": "non-infected cells, LDH release from basal wash"}, "influenza H1N1 [4]": {"system": "influenza H1N1", "type": "cell-based", "details": "day 4 post infection, CX-1 500 μM versus buffer treated cells (FIG. 5)"}, "SARS-CoV-2 [5]": {"system": "SARS-CoV-2", "assay": "PCR quantification of SARS-CoV-2 viral particles in supernatants of infected Vero E6 cells", "details": "for viral particle number, Sample #1 / viral particle number, Sample #2 / viral particle number, Sample #3: Vero E6, MOI 0.01; for viral particle number, average: average of triplicate"}, "HCoV 229E": {"system": "HCoV 229E", "details": "Geller et al., Antiviral Research 2010; cited from earlier work"}, "[6]": {"details": "24 h post-infection, versus buffer treated cells (FIG. 4 panel A)"}, "[7]": {"details": "48 h post infection, versus buffer treated cells (FIG. 4 panel B)"}, "[8]": {"details": "CX-1 500 μM, 24 h post-infection, prophylactic setting"}, "[9]": {"details": "CX-1 500 μM, 48 h post-infection, prophylactic setting"}}, "note": "Where two headings read alike, the source gives them in different places."}
{"molecule": "O=S(=O)(O)c1cc2c(O)c(c1)Cc1cc(S(=O)(=O)O)cc(c1O)Cc1cc(S(=O)(=O)O)cc(c1O)Cc1cc(S(=O)(=O)O)cc(c1O)C2", "note": "[CX-1, 5,11,17,23-sulfonato-25,26,27,28-tetrahydroxycalix[4]arene]", "values": [{"measurement": "protection of infected cells from dying (cytopathogenic effect, microscopy)", "setting": "SARS-CoV-2 [1]; prophylactic setting, 500, 100 or 20 μM, 48 h post infection (FIG. 1)", "result": "significantly protected from dying"}, {"measurement": "protection of infected cells from dying (cytopathogenic effect, microscopy)", "setting": "SARS-CoV-2 [1]; therapeutic setting, CX-1 added after 30 min infection, 48 h post infection (FIG. 2)", "result": "significantly protected from dying"}, {"measurement": "decrease in viral genome copy", "setting": "influenza H1N1 [2]; [6]", "result": "−0.9", "unit": "log"}, {"measurement": "reduction in viral genome copy", "setting": "influenza H1N1 [2]; [6]", "result": 88, "unit": "%"}, {"measurement": "decrease in viral genome copy", "setting": "influenza H1N1 [2]; [7]", "result": "~0.8", "unit": "log"}, {"measurement": "reduction in viral genome copy", "setting": "influenza H1N1 [2]; [7]", "result": 80.5, "unit": "%"}, {"measurement": "cytotoxicity", "setting": "[3]", "result": "no cytotoxicity"}, {"measurement": "cilia beating frequency", "setting": "influenza H1N1 [4]", "result": "significantly higher"}, {"measurement": "reduction in viral genome copy number", "setting": "SARS-CoV-2 [5]; 50 μM CX-1, preventive setting (FIG. 3)", "result": 30, "unit": "%"}, {"measurement": "viral particle number, Sample #1", "setting": "SARS-CoV-2 [5]; [8]", "result": 0.00, "unit": "viral particle number/μl"}, {"measurement": "viral particle number, Sample #2", "setting": "SARS-CoV-2 [5]; [8]", "result": 0.00, "unit": "viral particle number/μl"}, {"measurement": "viral particle number, Sample #3", "setting": "SARS-CoV-2 [5]; [8]", "result": 1.48, "unit": "viral particle number/μl"}, {"measurement": "viral particle number, average", "setting": "SARS-CoV-2 [5]; [8]", "result": 0.49, "unit": "viral particle number/μl"}, {"measurement": "viral particle number, Sample #1", "setting": "SARS-CoV-2 [5]; [9]", "result": 11.10, "unit": "viral particle number/μl"}, {"measurement": "viral particle number, Sample #2", "setting": "SARS-CoV-2 [5]; [9]", "result": 15.00, "unit": "viral particle number/μl"}, {"measurement": "viral particle number, Sample #3", "setting": "SARS-CoV-2 [5]; [9]", "result": 8.63, "unit": "viral particle number/μl"}, {"measurement": "viral particle number, average", "setting": "SARS-CoV-2 [5]; [9]", "result": 11.57, "unit": "viral particle number/μl"}, {"measurement": "potency (reduction in viral particles)", "setting": "SARS-CoV-2 [5]; CX-1 500 μM, 48 h post-infection, prophylactic setting, versus virus only", "result": 95, "unit": "%"}, {"measurement": "reduction in viral genome copy number", "setting": "SARS-CoV-2 [5]; lower dilutions of CX-1, preventive setting, versus infected non-treated control (FIG. 3)", "result": "over 90%"}]}
{"molecule": "O=S(=O)(O)c1cc2c(O)c(c1)Cc1cc(S(=O)(=O)O)cc(c1O)Cc1cc(S(=O)(=O)O)cc(c1O)Cc1cc(S(=O)(=O)O)cc(c1O)C2", "note": "[C[4]S, tetra-para-sulfonato-calix[4]arene]", "values": [{"measurement": "activity against HCoV 229E", "setting": "HCoV 229E", "result": "only very weak activity"}]}
{"molecule": "1,3-bis(bithiazolyl)-tetra-para-sulfonato-calix[4]arene [C[4]S-BTZ]", "values": [{"measurement": "activity against HCoV 229E", "setting": "HCoV 229E", "result": "very effective"}]}
